Measured values from patent publication US10975068B2, “6-aminopyridin-3-yl thiazoles as modulators of RORγT” (Janssen Pharmaceutica NV, priority 2016, dated 2021).

What was measured:
full-length human RORγt [1] = molecular target: T1, full-length human RORγt (Homo sapiens (Human), UniProt P51449); experiment: RORγt (full-length human) reporter assay, Conditions B or C; format: cell-based; details: Conditions B or C
Outline: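 Readout is dual luciferase: firefly (GAL4-driven) normalized to DMSO-only and saturating-reference controls, then to CMV-Renilla. Full-length human RORγt fused to GAL4-DBD was transiently expressed in HEK293T; compound exposure ran overnight (16-20 h) starting 4-6 h after transfection, final FBS 1.3%, DMSO 0.1%.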

[2] = system: IL-17 production by CD4 T cells; experiment: Human Th17 assay; format: cell-based; details: read-out: Human Th17 Assay, IC50
From the text: The human Th17 assay tests the effect of RORγt modulatory compounds on IL-17 production by CD4 T cells under conditions which favor Th17 differentiation. Total CD4^+ T cells were isolated from the peripheral blood mononuclear cells (PBMC) of healthy donors using a CD4^+ T cell isolation kit II, following the manufacturer's instructions (Miltenyi Biotec). Cells were resuspended in a medium of RPMI-1640 supplemented with 10% fetal bovine serum, penicillin, streptomycin, glutamate, and β-mercaptoethanol and were added to 96-well plates at 1.5×10^5 per 100 μL per well. 50 μL of compound at titrated concentrations in DMSO were added into each well at final DMSO concentration at 0.2%. Cells were incubated for 1 hour, then 50 μL of Th17 cell differentiation medium was added to each well. The final concentrations of antibodies and cytokines (R&D Systems) in differentiation medium were: 3×10^6/mL anti-CD3/CD28 beads (prepared using human T cell activation/expansion kit, Miltenyi Biotec), 10 μg/mL anti-IL4, 10 μg/mL anti-IFNγ, 10 ng/mL IL1β, 10 ng/mL IL23, 50 ng/mL IL6, 3 ng/mL TGFβ and 20 U/mL IL2. Cells were cultured at 37° C. and 5% CO2 for 3 days. Supernatants were collected and the accumulated IL-17 in culture was measured by using MULTI-SPOT® Cytokine Plate following manufacture's instruction (Meso Scale Discovery). The plate was read using Sector Imager 6000, and IL-17 concentration was extrapolated from the standard curve. The IC50s were determined by GraphPad.

full-length human RORγt [3] = molecular target: T1, full-length human RORγt; experiment: RORγt (full-length human) reporter assay, Conditions A; format: cell-based; details: for IC50: read-out: RORγt (FL) Reporter Assay A, IC50; for inhibition at 6 µM: read-out: RORγt (FL) Reporter Assay A, % inhibition @ 6 μM; for RORγt (FL) Reporter Assay A, % inhibition (value marked **): marked **: footnote not shown
From the text: RORγt (Full-Length Human) Reporter Assay:
Cells used in this assay were transiently co-transfected with three different plasmids, one expressing the GAL4-DNA binding domain (DBD)-RORγt fusion protein under control of a CMV promoter (NH2-Gal4-DBD:RORC-COOH in pCMV-BD, Stratagene #211342), and two reporter plasmids—the firefly luciferase reporter under control of a GAL4 promoter (pFR-Luc 2×GAL4) and Renilla luciferase reporter under control of CMV promoter (pRL-CMV, Promega # E2261). The full-length coding sequence was used for human RORγt, i.e., nucleotides 142-1635 of human RORγt, transcript variant 2, NCBI Accession: NM_001001523.1 (SEQ ID NO:1). HEK293T cells were plated at 35000 per well in 96-well plate in medium of MEM with 8.6% FBS. After 18-22 hours incubation, the transfection was carried out by using a PEI solution with 170.5 ng total DNA/well (50 ng pCMV-BD-ROR plus 20 ng of pFR-Luc reporter and 0.5 ng of pRL-CMV reporter plus 100 ng Carrier DNA (Clontech #630440) for each well). 4-6 hours after transfection, cells were treated with compounds for overnight in the medium with final concentration of FBS 1.1% and DMSO 0.1%. After overnight (16 to 20 hours) incubation, media were removed and cells were lysed with 20 μL 1× Passive Lysis Buffer (Promega) for 10-15 minutes. Luminescence was measured using a BMG LUMIstar OPTIMA plate reader, after addition of 75 μL/well firefly luciferase buffer, followed by 75 μL/well Renilla luciferase buffer. To calculate the effect of compounds on RORγt activity, firefly values were normalized against values of DMSO only and values of reference compound at saturating concentration, then further normalized against Renilla signals. IC50s were generated by plotting final Renilla normalized data against compound concentration and percent inhibition was calculated against DMSO control.

[4] = molecular target: human RORγt ligand binding domain (RORγt LBD) (Homo sapiens (Human), UniProt P51449); experiment: RORγt ThermoFluor® assay (thermal shift binding); details: read-out: ThermoFluor® Assay, Kd
Outline: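 Binding was inferred from thermal stabilisation (ΔTm) of the E. coli-expressed RORγt LBD (0.065 mg/mL), monitored by 1,8-ANS (60 μM) emission at 500 nm during a 1 °C/min ramp. Buffer was Hepes 100 mM pH 7.0 with NaCl, GSH and Tween-20.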

Chain of human RORγt ligand binding domain (RORγt LBD) (P51449 other isoform, or with tags, fused parts or gaps): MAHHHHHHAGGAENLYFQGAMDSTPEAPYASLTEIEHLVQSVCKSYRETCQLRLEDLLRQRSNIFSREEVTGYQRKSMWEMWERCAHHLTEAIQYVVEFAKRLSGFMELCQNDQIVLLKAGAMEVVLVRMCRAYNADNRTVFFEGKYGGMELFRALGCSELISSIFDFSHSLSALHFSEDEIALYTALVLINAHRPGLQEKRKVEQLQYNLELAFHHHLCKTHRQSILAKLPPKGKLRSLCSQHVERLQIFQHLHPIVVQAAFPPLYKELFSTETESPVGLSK
T1 sequence (P51449 other isoform, or with tags, fused parts or gaps): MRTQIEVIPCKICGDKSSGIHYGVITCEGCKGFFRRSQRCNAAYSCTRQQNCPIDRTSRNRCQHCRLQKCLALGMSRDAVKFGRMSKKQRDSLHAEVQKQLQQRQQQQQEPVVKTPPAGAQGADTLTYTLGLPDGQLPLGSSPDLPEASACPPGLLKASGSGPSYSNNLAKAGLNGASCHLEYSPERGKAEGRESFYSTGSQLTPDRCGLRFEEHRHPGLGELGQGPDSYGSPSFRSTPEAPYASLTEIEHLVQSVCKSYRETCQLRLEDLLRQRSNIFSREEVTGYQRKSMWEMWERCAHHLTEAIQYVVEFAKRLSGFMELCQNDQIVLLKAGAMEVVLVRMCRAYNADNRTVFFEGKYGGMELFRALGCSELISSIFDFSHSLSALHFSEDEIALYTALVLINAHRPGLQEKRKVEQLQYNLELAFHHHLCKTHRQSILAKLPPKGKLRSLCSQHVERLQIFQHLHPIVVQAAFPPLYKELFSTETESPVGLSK

Row | SMILES | IC50 (full-length human RORγt [3]; Conditions A) [nM] | inhibition at 6 µM (full-length human RORγt [3]; Conditions A) [%] | Kd [4] [nM] | other results
1 | C[C@H]1CCCCN1C(=O)c1nc(C(=O)NC2CCS(=O)(=O)CC2)sc1-c1cnc(NC2CCCCC2)cc1C1CC1 [Example 75, (S)-5-(6-(Cyclohexylamino)-4-cyclopropylpyridin-3-yl)-N-(1,1-dioxidotetrahydro-2H-thiopyran-4-yl)-4-(2-methylpiperidine-1-carbonyl)thiazole-2-carboxamide] | – | – | – | RORγt (FL) Reporter Assay B or C, % inhibition (value marked **) (full-length human RORγt [1]; marked **: footnote not shown): 108** %; IC50 (full-length human RORγt [1]; read-out: RORγt (FL) Reporter Assay B or C, IC50): 7 nM; IC50 [2]: 14 nM
2 | CC(C)(O)CNC(=O)c1nc(C(=O)N2CCC(F)CC2)c(-c2cnc(NCCC(F)(F)F)c(C(F)(F)F)c2)s1 [Example 7, 4-(4-Fluoropiperidine-1-carbonyl)-N-(2-hydroxy-2-methylpropyl)-5-(5-(trifluoromethyl)-6-((3,3,3-trifluoropropyl)amino)pyridin-3-yl)thiazole-2-carboxamide] | 620 | 80 | 230 | –
3 | C[C@H]1CCCCN1C(=O)c1nc(C(=O)NCC(C)(C)O)sc1-c1cnc(NC2CCCCC2)c(C(F)(F)F)c1 [Example 4, (S)-5-(6-(Cyclohexylamino)-5-(trifluoromethyl)pyridin-3-yl)-N-(2-hydroxy-2-methylpropyl)-4-(2-methylpiperidine-1-carbonyl)thiazole-2-carboxamide] | 9 | 106 | 0.98 | –
4 | CC[C@H](Nc1cc(C(F)F)c(-c2sc(C(=O)NCC(C)(C)O)nc2C(=O)N2CCCC[C@@H]2C)cn1)C(F)(F)F [Example 91, 5-(4-(Difluoromethyl)-6-(((S)-1,1,1-trifluorobutan-2-yl)amino)pyridin-3-yl)-N-(2-hydroxy-2-methylpropyl)-4-((S)-2-methylpiperidine-1-carbonyl)thiazole-2-carboxamide] | – | – | – | RORγt (FL) Reporter Assay B or C, % inhibition (value marked *) (full-length human RORγt [1]; marked *: footnote not given): 96* %; IC50 [2]: 19 nM
5 | CC(C)(O)CNC(=O)c1nc(C(=O)N2CCC(F)CC2)c(-c2cnc(NC3CCCCC3)c(OC(F)F)c2)s1 [Example 62, 5-(6-(Cyclohexylamino)-5-(difluoromethoxy)pyridin-3-yl)-4-(4-fluoropiperidine-1-carbonyl)-N-(2-hydroxy-2-methylpropyl)thiazole-2-carboxamide] | 160 | 98 | 12 | –
6 | CC(C)S(=O)(=O)Nc1cc(C(F)(F)F)c(-c2sc(C(=O)NCC(C)(C)O)nc2C(=O)N2CCC(F)CC2)cn1 [Comparator Example 3, 4-(4-Fluoropiperidine-1-carbonyl)-N-(2-hydroxy-2-methylpropyl)-5-(6-((1-methylethyl)sulfonamido)-4-(trifluoromethyl)pyridin-3-yl)thiazole-2-carboxamide, reference compound] | – | – | 53000 | IC50 (full-length human RORγt [3]; HEK293T cells): > 6000 nM
7 | CC(C)(O)CNC(=O)c1nc(C(=O)N2CCC(F)CC2)c(-c2cnc(NC3CCCCC3)c(C(F)(F)F)c2)s1 [Example 1, 5-(6-(Cyclohexylamino)-5-(trifluoromethyl)pyridin-3-yl)-4-(4-fluoropiperidine-1-carbonyl)-N-(2-hydroxy-2-methylpropyl)thiazole-2-carboxamide] | 79 | – | 35 | RORγt (FL) Reporter Assay A, % inhibition (value marked **) (full-length human RORγt [3]; Conditions A): 100** %
8 | CC(C)(O)CNC(=O)c1nc(C(=O)N2CCC(F)CC2)c(-c2cnc(NC3CCC(F)(F)C3)cc2C(F)(F)F)s1 (stereo not shown) [Example 20, 5-(6-((3,3-Difluorocyclopentyl)amino)-4-(trifluoromethyl)pyridin-3-yl)-4-(4-fluoropiperidine-1-carbonyl)-N-(2-hydroxy-2-methylpropyl)thiazole-2-carboxamide] | 200 | 110 | 52 | –
9 | CC(C)(O)CNC(=O)c1nc(C(=O)N2CCC(F)CC2)c(-c2cnc(NCCC(F)(F)F)cc2C(F)(F)F)s1 [Example 8, 4-(4-Fluoropiperidine-1-carbonyl)-N-(2-hydroxy-2-methylpropyl)-5-(4-(trifluoromethyl)-6-((3,3,3-trifluoropropyl)amino)pyridin-3-yl)thiazole-2-carboxamide] | 340 | 95 | 120 | –
10 | CC(C)(O)CNC(=O)c1nc(C(=O)N2CCC(F)CC2)c(-c2cnc(NC3CCCCC3)c(C#N)c2)s1 [Example 58, 5-(5-Cyano-6-(cyclohexylamino)pyridin-3-yl)-4-(4-fluoropiperidine-1-carbonyl)-N-(2-hydroxy-2-methylpropyl)thiazole-2-carboxamide] | 770 | 93 | 170 | –
11 | CC(C)(O)CNC(=O)c1nc(C(=O)N2CCC(F)CC2)c(-c2cnc(NC3CCCC(F)(F)C3)c(C(F)(F)F)c2)s1 (stereo not shown) [Example 13, 5-(6-((3,3-Difluorocyclohexyl)amino)-5-(trifluoromethyl)pyridin-3-yl)-4-(4-fluoropiperidine-1-carbonyl)-N-(2-hydroxy-2-methylpropyl)thiazole-2-carboxamide] | 100 | – | 37 | RORγt (FL) Reporter Assay A, % inhibition (value marked **) (full-length human RORγt [3]; Conditions A): 99** %
12 | CC(C)(O)CNC(=O)c1nc(C(=O)N2CCC(F)CC2)c(-c2cnc(NC3CCC(F)(F)CC3)cc2C(F)(F)F)s1 [Example 18, 5-(6-((4,4-Difluorocyclohexyl)amino)-4-(trifluoromethyl)pyridin-3-yl)-4-(4-fluoropiperidine-1-carbonyl)-N-(2-hydroxy-2-methylpropyl)thiazole-2-carboxamide] | 620 | 106 | 80 | –
13 | CC(C)(O)CNC(=O)c1nc(C(=O)N2CCC(F)CC2)c(-c2cnc(NC3CCCCC3)cc2C(F)F)s1 [Example 14, 5-(6-(Cyclohexylamino)-4-(difluoromethyl)pyridin-3-yl)-4-(4-fluoropiperidine-1-carbonyl)-N-(2-hydroxy-2-methylpropyl)thiazole-2-carboxamide] | 76 | 105 | 33 | –
14 | CC(C)(O)CNC(=O)c1nc(C(=O)N2CCC(F)CC2)c(-c2cnc(NC3CCC3)cc2C(F)(F)F)s1 [Example 9, 5-(6-(Cyclobutylamino)-4-(trifluoromethyl)pyridin-3-yl)-4-(4-fluoropiperidine-1-carbonyl)-N-(2-hydroxy-2-methylpropyl)thiazole-2-carboxamide] | 330 | 104 | 77 | –
15 | CC(C)(O)CNC(=O)c1nc(C(=O)N2CCC(F)CC2)c(-c2cnc(NC3CCCC(F)(F)C3)cc2C(F)(F)F)s1 (stereo not shown) [Example 23, 5-(6-((3,3-Difluorocyclohexyl)amino)-4-(trifluoromethyl)pyridin-3-yl)-4-(4-fluoropiperidine-1-carbonyl)-N-(2-hydroxy-2-methylpropyl)thiazole-2-carboxamide] | 79 | 96 | 30 | –
